# In US20070254951A1, “HIGH CONCENTRATION DINOTEFURAN FORMULATIONS” (priority 2006, published 2007):
# Like-named read-outs stand apart in the source and are kept apart here.
# Experiments:
# [1] = formulation of Example 9
# Excerpt: The formulation of Example 9 was stored under variable temperatures up to 2 years to determine the stability of dinotefuran in solution.
# [2] = Excerpt: It is also desirable that the resulting formulation be stable. […] This is important because these conditions can be met in commerce. The crystallization would reduce the amount of insecticide in solution and reduce the efficacy of the solution applied to the animal.
smiles,measurement,setting,value
"CNC(=N[N+](=O)[O-])NCC1CCOC1 (stereo not drawn) [Dinotefuran, 1-{(tetrahydro-3-furanyl)methyl}-2-nitro-3-methylguanidine]",Dinotefuran concentration in solution (average),"[1]; 40° F., 1 Mo",15.03 percent by weight
same,Dinotefuran concentration in solution (average),"[1]; 110° F., 3 Mo",15.33 percent by weight
same,Dinotefuran concentration in solution (average),"[1]; 130° F., 1 Mo",15.22 percent by weight
same,Dinotefuran concentration in solution (average),"[1]; F/T, 1 Mo",15.05 percent by weight
same,Dinotefuran concentration in solution (average),[1]; INITIAL,15.43 percent by weight
same,Dinotefuran concentration in solution (average),"[1]; RT (25° C.), 3 Mo",15.17 percent by weight
same,Dinotefuran concentration in solution (average),"[1]; RT, 1 Yr",15.24 percent by weight
same,Dinotefuran concentration in solution (average),"[1]; RT, 2 Yrs",15.735 percent by weight
same,Dinotefuran concentration in solution (average),"[1]; RT, 6 Mo",15.06 percent by weight
same,increase in concentration by including methoprene,"[2]; methoprene at about 0.8% and below, compared to a similar formulation without methoprene",~50%
same,increase in concentration achievable by including pyriproxyfen at low levels,"[2]; phenyl methanol formulation, no crystal formation at 0° F. during a 1 month period",~50%
same,dinotefuran concentration that will crystallize at 0° F. within a few days,"[2]; typically, 0° F.",over 8%
